Results as given in patent US6387885B1, “3′,3′-N-bis-desmethyl-3′-N-cycloalkyl erythromycin derivatives as LHRH antagonists” (Abbott Laboratories, priority 1998, dated 2002).

Legend:
[1] = biological target: T1, LHRH rat pituitary receptor (Rattus norvegicus, UniProt P30969); assay: LHRH rat pituitary receptor binding (in vitro); details: method of Haviv et al. J. Med. Chem. 32: 2340-2344 (1989), read-out: pKI (receptor binding affinity; negative logarithm of the equilibrium dissociation constant) (converted)
T1 construct: from tissue; host or cells: rat pituitary
T1 sequence (P30969 1-327): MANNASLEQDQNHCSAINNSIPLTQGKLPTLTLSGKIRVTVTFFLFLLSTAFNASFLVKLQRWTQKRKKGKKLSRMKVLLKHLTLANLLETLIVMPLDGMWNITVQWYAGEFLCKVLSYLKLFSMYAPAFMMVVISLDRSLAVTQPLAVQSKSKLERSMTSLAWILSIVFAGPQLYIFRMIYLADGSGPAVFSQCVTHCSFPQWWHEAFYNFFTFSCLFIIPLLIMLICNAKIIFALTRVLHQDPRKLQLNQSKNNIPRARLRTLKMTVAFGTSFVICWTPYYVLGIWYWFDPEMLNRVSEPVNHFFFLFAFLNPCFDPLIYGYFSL
Protocol: Representative compounds of the present invention were evaluated in in vitro tests for LHRH rat pituitary receptor binding (pKI). The tests employed the methods detailed in F. Haviv, et al. J. Med. Chem., 32: 2340-2344 (1989). The receptor binding affinity (pKI) is the negative logarithms of the equilibrium dissociation constants.

Ki [1] [nM] | melting point [°C] | SMILES
0.676 | – | CCC1CCC(CC)N1[C@H]1C[C@@H](C)O[C@@H](O[C@@H]2[C@@H](C)[C@H](O[C@H]3C[C@@](C)(OC)[C@@H](O)[C@H](C)O3)[C@@H](C)C(=O)O[C@H](CC)[C@@]3(C)OC(=O)N(CCc4ccc(F)c(Cl)c4)[C@@H]3[C@@H](C)C(=O)[C@H](C)C[C@@]2(C)OC)[C@@H]1O (mixture of isomers) [Example 10, 3′-Desamino-3′-N-(2,5-diethylpyrrolidinyl)-11-deoxy-11-[carboxy-(3-chloro-4-fluorophenethylamino)]-6-O-methyl-erythromycin A 11,12-(cyclic carbamate)]
1.23 | 258 to 260 | CC[C@H]1OC(=O)[C@H](C)[C@@H](O[C@H]2C[C@@](C)(OC)[C@@H](O)[C@H](C)O2)[C@H](C)[C@@H](O[C@@H]2O[C@H](C)C[C@H](N3C(C)CCC3C)[C@H]2O)[C@](C)(OC)C[C@@H](C)C(=O)[C@H](C)[C@H]2N(CCc3ccc(Cl)c(Cl)c3)C(=O)O[C@]12C (single isomer, unassigned) [Example 5, 3′-Desamino-3′S-N-(2,5-dimethylpyrrolidinyl)-11-deoxy-11-[carboxy-(3,4-dichlorophenethylamino)]-6-O-methyl-erythromycin A 11,12-(cyclic carbamate)]
0.759 | 276 to 278 | CC[C@H]1OC(=O)[C@H](C)[C@@H](O[C@H]2C[C@@](C)(OC)[C@@H](O)[C@H](C)O2)[C@H](C)[C@@H](O[C@@H]2O[C@H](C)C[C@H](N3C(C)CCC3C)[C@H]2O)[C@](C)(OC)C[C@@H](C)C(=O)[C@H](C)[C@H]2N(CCc3ccc(F)c(Cl)c3)C(=O)O[C@]12C (single isomer, unassigned) [Example 6, 3′-Desamino-3′-N-(2,5-dimethylpyrrolidinyl)-11-deoxy-11-[carboxy-(3-chloro-4-fluorophenethylamino)]-6-O-methyl-erythromycin A 11,12-(cyclic carbamate)]
2.57 | – | CC[C@H]1OC(=O)[C@H](C)[C@@H](O[C@H]2C[C@@](C)(OC)[C@@H](O)[C@H](C)O2)[C@H](C)[C@@H](O[C@@H]2O[C@H](C)C[C@H](N3C(C)CCCC3C)[C@H]2O)[C@](C)(OC)C[C@@H](C)C(=O)[C@H](C)[C@H]2N(CCc3ccc(Cl)c(Cl)c3)C(=O)O[C@]12C (single isomer, unassigned) [Example 7, 3′-Desamino-3′-N-(2,6-dimethylpiperidinyl)-11-deoxy-11-[carboxy-(3,4-dichlorophenethylamino)]-6-O-methyl-erythromycin A 11,12-(cyclic carbamate)]
2.45 | – | CC[C@H]1OC(=O)[C@H](C)[C@@H](O[C@H]2C[C@@](C)(OC)[C@@H](O)[C@H](C)O2)[C@H](C)[C@@H](O[C@@H]2O[C@H](C)C[C@H](N3C(C)CCCC3C)[C@H]2O)[C@](C)(OC)C[C@@H](C)C(=O)[C@H](C)[C@H]2N(CCc3ccc(F)c(Cl)c3)C(=O)O[C@]12C (single isomer, unassigned) [Example 8, 3′-Desamino-3′-N-(2,6-dimethylpiperidinyl)-11-deoxy-11-[carboxy-(3-chloro-4-fluorophenethylamino)]-6-O-methyl-erythromycin A 11,12-(cyclic carbamate)]
1.82 | – | CC[C@H]1OC(=O)[C@H](C)[C@@H](O[C@H]2C[C@@](C)(OC)[C@@H](O)[C@H](C)O2)[C@H](C)[C@@H](O[C@@H]2O[C@H](C)C[C@H](N3CCCC3)[C@H]2O)[C@](C)(OC)C[C@@H](C)C(=O)[C@H](C)[C@H]2N(CCc3ccc(Cl)c(Cl)c3)C(=O)O[C@]12C [Example 1, 3′-Desamino-(3′S)-N-pyrrolidinyl-11-deoxy-11-[carboxy-(3,4-dichlorophenethylamino)]-6-O-methyl-erythromycin A 11,12-(cyclic carbamate)]
3.55 | – | CC[C@H]1OC(=O)[C@H](C)[C@@H](O[C@H]2C[C@@](C)(OC)[C@@H](O)[C@H](C)O2)[C@H](C)[C@@H](O[C@@H]2O[C@H](C)C[C@H](N3CCCCC3)[C@H]2O)[C@](C)(OC)C[C@@H](C)C(=O)[C@H](C)[C@H]2N(CCc3ccc(Cl)c(Cl)c3)C(=O)O[C@]12C [Example 3, 3′-Desamino-3′-N-piperidinyl-11-deoxy-11-[carboxy-(3,4-dichlorophenethylamino)]-6-O-methyl-erythromycin A 11,12-(cyclic carbamate)]
5.62 | – | CC[C@H]1OC(=O)[C@H](C)[C@@H](O[C@H]2C[C@@](C)(OC)[C@@H](O)[C@H](C)O2)[C@H](C)[C@@H](O[C@@H]2O[C@H](C)C[C@H](N3CCCCC3)[C@H]2O)[C@](C)(OC)C[C@@H](C)C(=O)[C@H](C)[C@H]2N(CCc3ccc(F)c(Cl)c3)C(=O)O[C@]12C [Example 4, 3′-Desamino-3′-N-piperidinyl-11-deoxy-11-[carboxy-(3-chloro-4-fluorophenethylamino)]-6-O-methyl-erythromycin A 11,12-(cyclic carbamate)]
1.74 | – | CCC1CCC(CC)N1[C@H]1C[C@@H](C)O[C@@H](O[C@@H]2[C@@H](C)[C@H](O[C@H]3C[C@@](C)(OC)[C@@H](O)[C@H](C)O3)[C@@H](C)C(=O)O[C@H](CC)[C@@]3(C)OC(=O)N(CCc4ccc(Cl)c(Cl)c4)[C@@H]3[C@@H](C)C(=O)[C@H](C)C[C@@]2(C)OC)[C@@H]1O (stereo partly drawn) [Example 9, 3′-Desamino-3′-N-(2,5-diethylpyrrolidinyl)-11-deoxy-11-[carboxy-(3,4-dichlorophenethylamino)]-6-O-methyl-erythromycin A 11,12-(cyclic carbamate)]
1.17 | – | CC[C@H]1OC(=O)[C@H](C)[C@@H](O[C@H]2C[C@@](C)(OC)[C@@H](O)[C@H](C)O2)[C@H](C)[C@@H](O[C@@H]2O[C@H](C)C[C@H](N3C(C4CC4)CCCC3C3CC3)[C@H]2O)[C@](C)(OC)C[C@@H](C)C(=O)[C@H](C)[C@H]2N(CCc3ccc(F)c(Cl)c3)C(=O)O[C@]12C (stereo partly drawn) [Example 11, 3′-Desamino-3′-N-(2,6-biscyclopropylpiperidinyl)-11-deoxy-11-[carboxy-(3-chloro-4-fluorophenethylamino)]-6-O-methyl-erythromycin A 11,12-(cyclic carbamate)]
